Measurements reported in ChEMBL document CHEMBL4020759, “Sulfoximines as ATR inhibitors: Analogs of VE-821” (2017).
Activity calls are given as the source filed them. The rule behind the calls is not given here.

Columns and labels:
[1] = biological target: Serine-protein kinase ATM (Homo sapiens) (UniProt Q13315); assay: Inhibition of ATM in human U2OS cells assessed as reduction in etoposide-induced Chk-2 phosphorylation at Thr68 residue at 10 uM preincubated for 1 hr followed by etoposide challenge measured after 20 mins by Western blot analysis; type: cell-based
[2] = biological target: Serine/threonine-protein kinase ATR (Homo sapiens) (UniProt Q13535); assay: Inhibition of ATR in human U2OS cells assessed as reduction in etoposide-induced Chk-1 phosphorylation at Ser345 residue at 10 uM preincubated for 1 hr followed by etoposide challenge measured after 20 mins by Western blot analysis; type: cell-based
[3] = biological target: Serine/threonine-protein kinase ATR (Homo sapiens) (UniProt Q13535); assay: Inhibition of ATR in human U2OS cells assessed as reduction in hydroxyurea-induced Chk-1 phosphorylation at Ser345 residue at 10 uM preincubated for 1 hr followed by hydroxyurea challenge measured after 1 hr by Western blot analysis; type: cell-based
[4] = biological target: Serine-protein kinase ATM (Homo sapiens) (UniProt Q13315); assay: Inhibition of ATM in human U2OS cells assessed as reduction in hydroxyurea-induced Chk-2 phosphorylation at Thr68 residue at 10 uM preincubated for 1 hr followed by hydroxyurea challenge measured after 1 hr by Western blot analysis; type: cell-based
[5] = biological target: Serine-protein kinase ATM (Homo sapiens) (UniProt Q13315); assay: Inhibition of ATM in human U2OS cells assessed as reduction in hydroxyurea-induced H2AX phosphorylation at Ser139 residue at 3 to 10 uM preincubated for 1 hr followed by hydroxyurea challenge measured after 2 hrs by Western blot analysis; type: cell-based
[6] = biological target: Serine/threonine-protein kinase ATR (Homo sapiens) (UniProt Q13535); assay: Inhibition of ATR in human Ramos cells assessed as reduction in […] at 10 uM after 48 hrs by Western blot analysis; type: cell-based
[7] = tested on: Ramos; assay: Induction of apoptosis in human Ramos cells assessed as increase PARP-1 cleavage at 10 uM after 48 hrs by Western blot analysis; type: functional, cell-based
[8] = biological target: Serine/threonine-protein kinase ATR (Homo sapiens) (UniProt Q13535); assay: Inhibition of ATR in human U2OS cells assessed as reduction in hydroxyurea-induced Chk-1 phosphorylation at Ser345 residue by measuring ratio of GAPDH level to phosphorylated Chk-1 level at 3 uM preincubated for 1 hr followed by hydroxyurea challenge measured after 2 hrs by Western blot analysis; type: cell-based
[9] = biological target: Serine/threonine-protein kinase ATR (Homo sapiens) (UniProt Q13535); assay: Inhibition of ATR in human U2OS cells assessed as reduction in hydroxyurea-induced Chk-1 phosphorylation at Ser345 residue by measuring ratio of GAPDH level to phosphorylated Chk-1 level at 10 uM preincubated for 1 hr followed by hydroxyurea challenge measured after 2 hrs by Western blot analysis; type: cell-based
[10] = biological target: Serine/threonine-protein kinase ATR (Homo sapiens) (UniProt Q13535); assay: Inhibition of ATR in human U2OS cells assessed as reduction in hydroxyurea-induced Chk-1 phosphorylation at Ser345 residue preincubated for 1 hr followed by hydroxyurea challenge measured after 2 hrs by Western blot analysis; type: cell-based
[11] = biological target: Serine/threonine-protein kinase ATR (Homo sapiens) (UniProt Q13535); assay: Inhibition of ATR in human U2OS cells assessed as reduction in hydroxyurea-induced H2AX phosphorylation at Ser139 residue at 3 to 10 uM preincubated for 1 hr followed by hydroxyurea challenge measured after 2 hrs by Western blot analysis; type: cell-based

Chain of Serine-protein kinase ATM (Homo sapiens) (Q13315 whole entry): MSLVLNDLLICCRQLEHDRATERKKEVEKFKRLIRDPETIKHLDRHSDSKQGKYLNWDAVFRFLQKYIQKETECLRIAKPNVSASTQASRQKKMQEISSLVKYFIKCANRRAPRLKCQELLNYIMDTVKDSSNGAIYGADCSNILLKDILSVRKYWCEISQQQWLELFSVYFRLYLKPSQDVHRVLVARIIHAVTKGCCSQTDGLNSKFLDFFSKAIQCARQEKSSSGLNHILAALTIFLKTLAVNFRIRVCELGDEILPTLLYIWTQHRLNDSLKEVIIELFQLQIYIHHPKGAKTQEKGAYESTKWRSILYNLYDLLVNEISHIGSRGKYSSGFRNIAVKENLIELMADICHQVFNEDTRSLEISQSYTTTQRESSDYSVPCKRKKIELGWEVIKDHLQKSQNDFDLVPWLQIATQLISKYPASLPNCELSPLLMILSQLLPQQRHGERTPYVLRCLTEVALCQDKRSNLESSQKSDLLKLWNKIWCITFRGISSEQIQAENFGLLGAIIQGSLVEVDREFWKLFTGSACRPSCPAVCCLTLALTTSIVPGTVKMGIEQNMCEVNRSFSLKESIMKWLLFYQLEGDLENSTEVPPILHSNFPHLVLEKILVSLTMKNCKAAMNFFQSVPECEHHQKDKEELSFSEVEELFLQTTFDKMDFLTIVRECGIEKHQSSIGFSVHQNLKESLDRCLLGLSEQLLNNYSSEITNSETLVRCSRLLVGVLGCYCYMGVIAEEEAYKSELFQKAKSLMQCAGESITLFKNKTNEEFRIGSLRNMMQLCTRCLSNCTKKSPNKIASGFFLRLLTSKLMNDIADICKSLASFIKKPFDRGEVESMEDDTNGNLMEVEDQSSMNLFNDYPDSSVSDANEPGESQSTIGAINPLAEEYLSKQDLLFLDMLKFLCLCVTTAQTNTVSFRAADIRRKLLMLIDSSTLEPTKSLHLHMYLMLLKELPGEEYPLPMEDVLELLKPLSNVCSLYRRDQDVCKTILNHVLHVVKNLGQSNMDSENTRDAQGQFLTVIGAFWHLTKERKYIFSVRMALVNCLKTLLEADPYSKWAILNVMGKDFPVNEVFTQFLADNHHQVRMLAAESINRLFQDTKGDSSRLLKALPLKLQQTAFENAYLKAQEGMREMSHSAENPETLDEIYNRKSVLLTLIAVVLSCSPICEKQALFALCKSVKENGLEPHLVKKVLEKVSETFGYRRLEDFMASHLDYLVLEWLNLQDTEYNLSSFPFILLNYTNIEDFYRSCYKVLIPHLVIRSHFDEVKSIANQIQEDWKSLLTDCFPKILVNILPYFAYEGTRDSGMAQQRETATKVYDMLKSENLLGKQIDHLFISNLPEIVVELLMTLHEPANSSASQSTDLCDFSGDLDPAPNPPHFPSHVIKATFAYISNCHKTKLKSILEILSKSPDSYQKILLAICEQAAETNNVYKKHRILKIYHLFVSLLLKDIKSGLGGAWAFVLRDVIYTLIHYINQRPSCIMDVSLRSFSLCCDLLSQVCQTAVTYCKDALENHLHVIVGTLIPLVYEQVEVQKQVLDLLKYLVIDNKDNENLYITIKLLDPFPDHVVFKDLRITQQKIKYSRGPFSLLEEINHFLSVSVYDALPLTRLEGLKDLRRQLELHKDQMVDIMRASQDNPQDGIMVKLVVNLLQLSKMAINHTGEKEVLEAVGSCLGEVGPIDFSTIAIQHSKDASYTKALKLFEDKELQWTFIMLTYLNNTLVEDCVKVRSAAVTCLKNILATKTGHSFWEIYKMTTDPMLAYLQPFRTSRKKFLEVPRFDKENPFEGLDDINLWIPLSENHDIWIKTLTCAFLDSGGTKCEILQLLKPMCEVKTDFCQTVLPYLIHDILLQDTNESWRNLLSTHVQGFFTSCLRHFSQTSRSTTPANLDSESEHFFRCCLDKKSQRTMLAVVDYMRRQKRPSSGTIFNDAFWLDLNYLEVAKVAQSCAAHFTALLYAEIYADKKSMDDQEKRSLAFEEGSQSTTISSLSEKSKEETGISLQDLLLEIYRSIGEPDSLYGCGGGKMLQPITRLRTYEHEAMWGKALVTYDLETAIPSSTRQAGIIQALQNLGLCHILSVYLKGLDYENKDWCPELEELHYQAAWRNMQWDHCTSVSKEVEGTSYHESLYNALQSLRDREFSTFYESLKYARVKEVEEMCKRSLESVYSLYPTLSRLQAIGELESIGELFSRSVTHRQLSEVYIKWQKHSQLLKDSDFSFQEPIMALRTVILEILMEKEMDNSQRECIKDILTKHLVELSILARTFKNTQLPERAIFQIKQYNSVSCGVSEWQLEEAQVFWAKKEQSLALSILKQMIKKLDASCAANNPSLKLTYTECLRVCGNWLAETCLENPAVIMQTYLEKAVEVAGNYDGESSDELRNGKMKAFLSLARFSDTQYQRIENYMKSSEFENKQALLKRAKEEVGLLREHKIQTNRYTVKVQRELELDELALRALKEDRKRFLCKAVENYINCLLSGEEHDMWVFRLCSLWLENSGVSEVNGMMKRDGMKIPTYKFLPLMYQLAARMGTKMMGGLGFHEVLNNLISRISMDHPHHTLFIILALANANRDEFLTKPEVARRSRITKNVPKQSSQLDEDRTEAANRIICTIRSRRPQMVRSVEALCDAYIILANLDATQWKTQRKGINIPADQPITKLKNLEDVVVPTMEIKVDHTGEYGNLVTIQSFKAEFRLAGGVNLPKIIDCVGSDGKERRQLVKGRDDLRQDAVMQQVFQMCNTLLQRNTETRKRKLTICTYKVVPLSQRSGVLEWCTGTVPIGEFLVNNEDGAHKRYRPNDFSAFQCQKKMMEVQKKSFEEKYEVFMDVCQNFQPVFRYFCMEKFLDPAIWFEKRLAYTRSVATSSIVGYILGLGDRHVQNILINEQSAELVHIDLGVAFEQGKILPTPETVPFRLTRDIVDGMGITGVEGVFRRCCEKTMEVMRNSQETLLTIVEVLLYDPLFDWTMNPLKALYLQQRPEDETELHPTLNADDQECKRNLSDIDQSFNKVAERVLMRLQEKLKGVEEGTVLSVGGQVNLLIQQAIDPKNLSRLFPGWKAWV

SMILES | inhibition [1] | inhibition [2] | inhibition [3] | inhibition [4] | inhibition [5] | inhibition [6] | Activity [7] | Ratio [8] | Ratio [9] | inhibition [10] | inhibition [11]
CS(=N)(=O)c1ccc(-c2cnc(N)c(C(=O)Nc3ccccc3)n2)cc1 (centres undefined) | inactive | Active | Active | inactive | inactive | Active | Active | 28.3 | 21.1 | Dose-dependent effect | Dose-dependent effect
CN=S(C)(=O)c1ccc(-c2cnc(N)c(C(=O)Nc3ccccc3)n2)cc1 (centres undefined) | inactive | Active | Active | inactive | inactive | Active | Active | 46.1 | 36.4 | Dose-dependent effect | Dose-dependent effect
CS(=O)(=O)c1ccc(-c2cnc(N)c(C(=O)Nc3ccccc3)n2)cc1 | inactive | Active |  |  | inactive | Active | Active | 13 | 16.3 |  | 
